Test results from PubChem BioAssay (NCI).
Where “and” joins values, the source holds several entries; their conditions need not be identical. Identical values can stand only once.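 1) Cells in 96-well plates. 2) Compound, 48 h, 5 concentrations. 3) Linear interpolation between surrounding doses. 4) Unreached endpoint = highest concentration. The concentration for 50% growth inhibition is given as GI50. TGI denotes the concentration required for complete inhibition of growth.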

Key:
Assay in all cases: DTP human tumour cell line panel, 48 h
CCRF-CEM leukemia = test system: CCRF-CEM leukemia
M14 melanoma = test system: M14 melanoma
SNB-19 CNS = test system: SNB-19 CNS
SK-MEL-5 melanoma = test system: SK-MEL-5 melanoma
SN12C renal = test system: SN12C renal
UACC-257 melanoma = test system: UACC-257 melanoma
NCI-H460 lung = test system: NCI-H460 lung
MOLT-4 leukemia = test system: MOLT-4 leukemia
UO-31 renal = test system: UO-31 renal
EKVX NSCLC = test system: EKVX NSCLC

Structure (SMILES) | TGI (CCRF-CEM leukemia) | TGI (M14 melanoma) [µM] | TGI (SNB-19 CNS) | TGI (SK-MEL-5 melanoma) [µM] | TGI (SN12C renal) [µM] | TGI (UACC-257 melanoma) | TGI (NCI-H460 lung) [µM] | TGI (MOLT-4 leukemia) | TGI (UO-31 renal) | TGI (EKVX NSCLC) [µM] | GI50 (CCRF-CEM leukemia) | GI50 (SNB-19 CNS) [µM] | GI50 (UACC-257 melanoma) | GI50 (NCI-H460 lung) [µM] | GI50 (MOLT-4 leukemia) [µM] | GI50 (UO-31 renal) [µM]
COC(=O)C(Cc1c[nH]c2ccccc12)NP(=O)(O)OCC1OC(n2cc(Br)c(=O)[nH]c2=O)CC1O (stereo not drawn) | > 100 µM | > 100 | > 100 µM | > 100 | > 100 | > 100 µM | > 100 | > 100 µM | > 100 µM | > 100 | – | – | – | – | – | –
COc1ccc(-c2ncn(C[Si](C)(C)C)c2-c2ccc(OC)cc2)cc1 | – | 14.8 | 26.2 µM | 10.2 | 24.3 | 16.7 µM | 15.3 | 4.22 µM | 10 µM | 12.1 | – | – | – | – | – | –
CC1SC2(CCCCC2)N(NC(=O)CSc2nc3ccc(Cl)cc3c(=O)n2-c2ccccc2)C1=O (stereo not drawn) | > 100 µM | 42.2 | 66.9 µM | 27.9 | 32.5 | 55.5 µM | 42.7 | 47.2 µM | 40.4 µM | > 100 | – | – | – | – | – | –
CC(=O)C(C(C)=O)[C@@H]1OC(C)(C)O[C@@H]1[C@H]1COC(C)(C)O1 | – | > 100 | > 100 µM | > 100 | 44.9 | > 100 µM | > 100 | > 100 µM | > 100 µM | 79.1 | – | – | – | – | – | –
N#Cc1cc(Sc2ccc(N)c(C#N)c2)ccc1N | 41.3 µM | 47.8 | > 100 µM | 39 | > 100 | > 100 µM | 31.1 | > 100 µM | > 100 µM | 50.5 | – | – | – | – | – | –
CC(C)C(=O)/C=C/S/C=C/C(=O)C(C)C | – | 20.2 | > 100 µM | 21.7 | 29.6 | 6.5 µM | > 100 | – | 62.7 µM | 90.9 | – | – | – | – | – | –
COc1c(Br)cc2ccccc2c1-c1c(OC)c(Br)cc2ccccc12 | > 100 µM | > 100 | > 100 µM | > 100 | – | > 100 µM | > 100 | > 100 µM | > 100 µM | > 100 | – | – | – | – | – | –
CCCCc1ccc(Nc2nc(Cl)c3ccn(C4CC(Oc5ccc(C)cc5)C(COc5ccc(C)cc5)O4)c3n2)cc1 (stereo not drawn) | > 46.4 µM | > 46.4 | 31.8 µM | > 46.4 | > 46.4 | 31.5 µM | > 31.6 | > 46.4 µM | 31.2 µM | 38 | – | – | – | – | – | –
Nn1c(=O)[nH]c2ncn(Cc3ccccc3)c2c1=O | > 100 µM | > 100 | > 100 µM | > 100 | > 100 | > 100 µM | > 100 | > 100 µM | > 100 µM | > 100 | – | – | – | – | – | –
CCN(CC)CC1CN=C(N)O1 (stereo not drawn) | > 100 µM | > 100 | > 100 µM | > 100 | > 100 | > 100 µM | > 100 | > 100 µM | > 100 µM | > 100 | – | – | – | – | – | –
COC(=O)CCNc1c2ccccc2nc2cccc([N+](=O)[O-])c12 | 0.18 µM and 0.0689 µM | – | 0.217 µM and 0.0495 µM | – | 0.0168 | 0.00704 µM and 0.0476 µM | 0.234 | 0.117 µM and 0.0124 µM | 0.00492 µM and 0.0113 µM | – | 0.00682 µM and 0.0157 µM | 0.00416 | 0.0023 µM and 0.0122 µM | 0.0138 | 0.00107 | 0.00139
C/C=C(\C)C(=O)O[C@@H]1CC(C)(C)CC2C3=CCC4[C@]56CC[C@](O)(OC5)C(C)(C)C6CC[C@@]4(C)C3(C)CC[C@]21C(=O)O (stereo partly drawn) | > 100 µM | > 100 | > 100 µM | > 100 | > 100 | > 100 µM | > 100 | > 100 µM | – | > 100 | – | – | – | – | – | –
O=C(CN1CCCCC1)Nc1ccc2c(c1)C1Oc3ccccc3CC1CO2 (stereo not drawn) | > 100 µM | 32.3 | – | 26.7 | > 100 | 36 µM | – | > 100 µM | 72.7 µM | 53.9 | – | – | – | – | – | –
C=CCOC(OCC=C)/C(Br)=C/C | > 100 µM | > 100 | > 100 µM | > 100 | > 100 | > 100 µM | > 100 | – | > 100 µM | > 100 | – | – | – | – | – | –
Cc1c(Cl)cccc1N=NC(=O)NNc1cccc(Cl)c1C | 42.6 µM | 35.7 | 41.9 µM | 28.6 | 32.4 | 42.1 µM | 31.2 | 46.7 µM | 26.3 µM | – | – | – | – | – | – | –
O=C(O)/C(=C\c1ccc(O)cc1)c1cccc2ccccc12 | – | > 100 | > 100 µM | > 100 | > 100 | > 100 µM | > 100 | > 100 µM | > 100 µM | > 100 | – | – | – | – | – | –
CC(C(=O)c1ccncc1)c1ccccn1 (stereo not drawn) | > 100 µM | > 100 | > 100 µM | > 100 | > 100 | > 100 µM | > 100 | – | > 100 µM | > 100 | – | – | – | – | – | –
O=C(c1cccs1)N1CCCN(C(=O)c2cccs2)C1=S | > 100 µM | > 100 | > 100 µM | > 100 | > 100 | > 100 µM | – | > 100 µM | > 100 µM | > 100 | – | – | – | – | – | –
COC(=O)C1CCC(=O)N1C(c1cc(OC)c(OC)c(OC)c1)c1cccc2ccccc12 (stereo not drawn) | – | > 100 | > 100 µM | – | > 100 | > 100 µM | > 100 | > 100 µM | > 100 µM | > 100 | – | – | – | – | – | –
NCCCNOCCCN | – | > 100 | > 100 µM | > 100 | > 100 | – | > 100 | > 100 µM | > 100 µM | – | – | – | – | – | – | –
CCCCSC1=N/C(=C\c2ccc(N(C)C)cc2)C(=O)N1 | > 100 µM | > 100 | > 100 µM | > 100 | 33.5 | 56.7 µM | 51.6 | > 100 µM | – | 76.5 | – | – | – | – | – | –
CCN(CC)c1ccc(/C=C2\CCc3ccc([N+](=O)[O-])cc3C2=O)cc1 | > 100 µM | > 100 | > 30.1 µM | > 100 | > 100 | – | > 48.9 | > 100 µM | > 100 µM | > 100 | – | – | – | – | – | –
